Where two headings read alike, the source gives them in different places.
Key:
LmxCLK1 = target: T1, LmxCLK1 (Leishmania mexicana, UniProt E9AMP2); assay: biochemical; assay type: binding
T1 sequence (E9AMP2 1-422): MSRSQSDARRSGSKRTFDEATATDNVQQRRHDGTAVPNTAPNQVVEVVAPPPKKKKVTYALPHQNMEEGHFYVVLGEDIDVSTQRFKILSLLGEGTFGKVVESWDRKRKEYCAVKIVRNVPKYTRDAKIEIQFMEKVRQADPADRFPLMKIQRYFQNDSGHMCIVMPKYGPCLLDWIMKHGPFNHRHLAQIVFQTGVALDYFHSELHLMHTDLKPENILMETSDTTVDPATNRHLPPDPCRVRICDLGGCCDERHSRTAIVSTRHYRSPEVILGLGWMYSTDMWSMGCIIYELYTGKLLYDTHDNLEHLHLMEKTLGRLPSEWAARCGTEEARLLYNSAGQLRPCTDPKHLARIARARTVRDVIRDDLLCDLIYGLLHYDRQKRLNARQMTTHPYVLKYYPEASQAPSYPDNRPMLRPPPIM

NLuc::LmxCLK1 = NLuc::LmxCLK1 (Leishmania mexicana, UniProt E9AMP2); assay: cell-based; assay type: cell-based; conditions: for Target occupancy Run 1 / Target occupancy Run 2 / Target occupancy Average: 10 µM compound, tracer SV366, promastigotes; for Target occupancy Average: mean of two experiments
Method in brief: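 NanoBRET tracer displacement in live cells expressing NLuc-tagged CLK1, test compounds at 10 µM fixed, 1% DMSO final. Acceptor/donor emission (610/460 nm) ratio gives mBRET, converted to blank-corrected probe occupancy (%); probe KD from single-site saturation binding fits.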

[1] = DSF, 10 µM compound, 2 µM LmxCLK1, Run 1
[2] = DSF, 10 µM compound, 2 µM LmxCLK1, Run 2
[3] = DSF, 10 µM compound, 2 µM LmxCLK1, mean of two runs
[4] = DSF, 10 µM compound, 2 µM LmxCLK1, Run 1, read-out: ΔTm Run 1
[5] = DSF, 10 µM compound, 2 µM LmxCLK1, Run 2, read-out: ΔTm Run 2
[6] = DSF, 10 µM compound, 2 µM LmxCLK1, mean of two runs, read-out: ΔTm Average
[7] = read-out: Target occupancy Average
[8] = read-out: Target occupancy Run 1
[9] = read-out: Target occupancy Run 2

Compound | ΔTm Run 1 (LmxCLK1; [1]) | ΔTm Run 2 (LmxCLK1; [2]) | ΔTm Average (LmxCLK1; [3]) | Target occupancy Run 1 (NLuc::LmxCLK1) | Target occupancy Run 2 (NLuc::LmxCLK1) | Target occupancy Average (NLuc::LmxCLK1) | ΔTm at 10 µM (LmxCLK1; [4]) | ΔTm at 10 µM (LmxCLK1; [5]) | ΔTm at 10 µM (LmxCLK1; [6]) | ΔTm Average (LmxCLK1) | ΔTm Run 1 (LmxCLK1) | ΔTm Run 2 (LmxCLK1) | receptor occupancy at 10 µM (NLuc::LmxCLK1; [7]) | receptor occupancy at 10 µM (NLuc::LmxCLK1; [8]) | receptor occupancy at 10 µM (NLuc::LmxCLK1; [9])
COc1ccc(Cl)cc1NC(=O)Nc1cc(C)nc2ccccc12 [PQ 401] | 0.0 °C | -0.2 °C | -0.1 °C | -4.0% | 1.2% | -1.4% |  |  |  |  |  |  |  |  | 
CCOc1cc2ncc(C#N)c(Nc3ccc(F)c(Cl)c3)c2cc1NC(=O)/C=C/CN(C)C [Pelitinib (EKB-569), Pelitinib] |  |  |  |  |  | negligible target engagement | 9.1 °C | 12.5 °C | 10.8 ± 1.7 °C |  |  |  |  |  | 
COc1cc(Nc2ncc(F)c(Nc3ccc4c(n3)NC(=O)C(C)(C)O4)n2)cc(OC)c1OC [R406] |  |  |  | 6.2% | -5.8% | 0.2% |  |  |  | 0.4 °C | 0.4 °C | 0.3 °C |  |  | 
CNC(=O)c1cc(Oc2ccc(NC(=O)Nc3ccc(Cl)c(C(F)(F)F)c3)c(F)c2)ccn1 [Regorafenib (BAY 73-4506)] | 0.1 °C | -0.3 °C | -0.1 °C | -4.0% | -5.3% | -4.6% |  |  |  |  |  |  |  |  | 
Cn1cc(C2=C(c3ccc(Cl)cc3Cl)C(=O)NC2=O)c2ccccc21 [SB216763] |  |  |  |  |  |  | 0.1 °C | -0.1 °C | 0 °C |  |  |  | -4.4% | 0.9% | -9.6%
Cc1[nH]c(/C=C2\C(=O)Nc3ccc(S(=O)(=O)N(C)c4cccc(Cl)c4)cc32)c(C)c1C(=O)N1CCN(C)CC1 [SU11274] |  |  |  |  |  |  | -0.1 °C | -0.2 °C | -0.2 °C |  |  |  | -6.7% | -7.3% | -6%
O=C1c2ccc(Nc3ccc(F)cc3F)cc2CCc2ccc(OC[C@H](O)CO)cc21 [Skepinone-L] |  |  |  |  |  |  | 0 °C | 0.1 °C | 0.1 °C |  |  |  | -1.4% | 6.5% | -9.2%
CNC(=O)c1ccccc1Nc1nc(Nc2ccc(N3CCOCC3)cc2OC)ncc1Cl [TAE226 (NVP-TAE226)] | 0.2 °C | -0.1 °C | 0.0 °C | -26.7% | -0.7% | -13.7% |  |  |  |  |  |  |  |  | 
CCS(=O)(=O)c1cccc(-c2cc(C(=O)NC3CCN(C)CC3)c(C)c3[nH]c4ncc(C)cc4c23)c1 [TAK-901] |  |  |  |  |  |  | 1.5 °C | 1.1 °C | 1.3 °C |  |  |  | -5.9% | -2.7% | -9.1%
CCN1/C(=C/C(C)=O)Sc2ccc(OC)cc21 [TG003] | 1.4 °C | 1.2 °C | 1.3 °C | 10.1% | -15.2% | -2.5% |  |  |  |  |  |  |  |  | 
Cc1ccccc1CN1C(=O)C2=C(CCN(Cc3ccccc3)C2)N2CCN=C12 [TIC10] |  |  |  | 4.1% | -6.1% | -1.0% |  |  |  | 0.2 °C | 0.2 °C | 0.2 °C |  |  | 
NC(=O)Nc1sc(-c2ccc(F)cc2)cc1C(N)=O [TPCA-1] | 0.1 °C | 0.2 °C | 0.2 °C | 1.2% | -7.6% | -3.2% |  |  |  |  |  |  |  |  | 
O=C(NCc1ccccc1)c1csc(Nc2ccncn2)n1 [Thiazovivin] | 0.3 °C | 0.0 °C | 0.2 °C | -3.6% | 1.5% | -1.1% |  |  |  |  |  |  |  |  | 
CS(=O)(=O)c1ccc(-c2cnc(N)c(C(=O)Nc3ccccc3)n2)cc1 [VE-821] |  |  |  |  |  |  | -0.2 °C | -0.5 °C | -0.4 °C |  |  |  | -2.9% | -11.1% | 5.3%
C[C@@H]1COC(Nc2ccc3ncnc(Nc4ccc(OCc5nccs5)c(Cl)c4)c3c2)=N1 [Varlitinib] |  |  |  |  |  |  | 0.2 °C | 0 °C | 0.1 °C |  |  |  | -0.8% | 2.7% | -4.3%
c1cncc(CN2CCC(n3ncc4c(N5CCOCC5)nc(-c5ccc6[nH]ccc6c5)nc43)CC2)c1 [WAY-600] | 0.0 °C | -0.4 °C | -0.2 °C | 4.0% | -10.8% | -3.4% |  |  |  |  |  |  |  |  | 
COc1cc2ncnc(Nc3ccc(O)c(Br)c3)c2cc1OC [WHI-P154] | 0.1 °C | 0.1 °C | 0.1 °C | 7.3% | -12.9% | -2.8% |  |  |  |  |  |  |  |  | 
C[C@H](NC(=O)/C(C#N)=C/c1cccc(Br)n1)c1ccccc1 [WP1066] |  |  |  |  |  |  | 0.1 °C | 0 °C | 0 °C |  |  |  | -7.5% | 3.4% | -18.3%
COC[C@H]1OC(=O)c2coc3c2[C@@]1(C)C1=C(C3=O)[C@@H]2CCC(=O)[C@@]2(C)C[C@H]1OC(C)=O [Wortmannin] |  |  |  |  |  |  | 0 °C | -0.3 °C | -0.2 °C |  |  |  | -3.6% | -2.4% | -4.8%
COc1ccc(Cl)c(Nc2nc3ccccc3nc2NS(=O)(=O)c2cccc(NC(=O)C(C)(C)N)c2)c1 [XL147] |  |  |  |  |  |  | -0.1 °C | 0.8 °C | 0.4 °C |  |  |  | -5% | -8.3% | -1.7%
CC(C)N(CCC(=O)c1ccc2ccccc2c1)Cc1ccccc1.Cl [ZM 39923 HCl] | 0.0 °C | -0.3 °C | -0.2 °C | 0.2% | -18.8% | -9.3% |  |  |  |  |  |  |  |  | 
Cc1ccc(NC(=O)c2cccc(N(C)C)c2)cc1NC(=O)c1ccc(O)cc1 [ZM 336372] | -0.1 °C | -0.5 °C | -0.3 °C | -4.5% | -6.5% | -5.5% |  |  |  |  |  |  |  |  | 
AZD4547 | -0.1 °C | -0.3 °C | -0.2 °C | -24.6% | 21.5% | -1.5% |  |  |  |  |  |  |  |  | 
UNC-AA-1-0013 (AAK1) |  |  |  | 3.7% | -11.6% | -4.0% |  |  |  | -0.2 | -0.2 | -0.3 |  |  | 

— publication PMC7619385 (ACS infectious diseases, 2025)
